Laboratory results reported in patent publication US20120015925A1, “NOVEL BENZOTHIAZEPINE AND BENZOTHIEPINE COMPOUNDS” (ASAHI KASEI PHARMA CORPORATION, priority 2004, published 2012).

Biological target: T1, human IBAT (Homo sapiens, UniProt Q12908)
T1 sequence (Q12908 1-348): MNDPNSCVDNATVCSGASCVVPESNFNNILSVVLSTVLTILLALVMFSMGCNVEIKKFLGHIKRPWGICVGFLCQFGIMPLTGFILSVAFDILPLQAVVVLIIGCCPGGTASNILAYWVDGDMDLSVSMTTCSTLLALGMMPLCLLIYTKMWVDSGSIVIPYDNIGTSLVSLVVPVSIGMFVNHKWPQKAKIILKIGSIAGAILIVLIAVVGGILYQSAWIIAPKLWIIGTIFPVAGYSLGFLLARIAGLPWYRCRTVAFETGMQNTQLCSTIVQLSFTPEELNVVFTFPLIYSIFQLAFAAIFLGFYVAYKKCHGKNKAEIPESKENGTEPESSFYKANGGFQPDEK
Experiment: In vitro assay using Cos 7 cells, transiently expressed human IBAT
Format: cell-based
Settings: [3H]-taurocholate 8 μM uptake, 37° C., 60 minutes
Protocol: In the present Test Example, an in vitro assay of compounds using Cos 7 cells as to inhibitory activity on transiently expressed human IBAT or rat IBAT transporter was performed according to the method described in Am. J. Physiol., 274, G157-169.
That is, […] cells/well of Cos 7 cells were seeded in a 24-well plate, and after one day, the cells were transfected with 0.3 μg/well of cDNA of human IBAT or rat IBAT using FuGENE6 (supplied from Roche). After culturing for one day after the transfection, the cells were washed once with the assay buffer, i.e., Hanks buffer containing 25 mM glucose and 10 mM HEPES (pH 7.4). The assay buffer was then replaced with the assay buffer containing the test compound. [^3H]-Taurocholate at a final concentration of 8 μM was added thereto and incubated at 37° C. for 60 minutes so that [^3H]-taurocholate was taken into Cos 7 cells by the action of human IBAT or rat IBAT. The cells were washed twice with the assay buffer containing 1 mM taurocholate, and subsequently lysed with 0.2 M NaOH to stop the reaction. The cell lysate was added to 4 mL of liquid scintillation cocktail, which was then thoroughly vortexed. Then the radioactivity was measured using the liquid scintillation counter.

Structure (SMILES) | IC50 [nM]
CCCCC1(CCCC)CS(=O)(=O)c2ccc(N(C)C)cc2C(c2cccc(NC(=S)Nc3ccc(C[n+]4ccc(C(c5ccccc5)c5ccccc5)cc4)cc3)c2)N1 (stereo not drawn) [EXAMPLE 5410] | 100
CCCCC1(CCCC)CS(=O)(=O)c2ccc(N(C)C)cc2C(c2cccc(NC(=S)Nc3ccc(C[n+]4ccccc4CCOC(C)C)cc3)c2)N1 (stereo not drawn) [EXAMPLE 5420] | 68
CCCCC1(CCCC)CS(=O)(=O)c2ccc(N(C)C)cc2C(c2cccc(NC(=S)Nc3ccc(C[N+]45CCC(CC4)CC5)cc3C)c2)N1 (stereo not drawn) [EXAMPLE P317] | 49
CCCCC1(CCCC)CS(=O)(=O)c2ccc(N(C)C)cc2C(c2cccc(NC(=S)Nc3ccc(C[N+]45CCC(CC4)CC5)c(F)c3)c2)N1 (stereo not drawn) [EXAMPLE P319] | 42
CCCCC1(CCCC)CS(=O)(=O)c2ccc(N(C)C)cc2C(c2cccc(NC(=S)Nc3ccc(C[N+]45CCC(CC4)CC5)cc3Cl)c2)N1 (stereo not drawn) [EXAMPLE P320] | 41
CCCCC1(CCCC)CS(=O)(=O)c2ccc(N(C)C)cc2C(c2cccc(NC(=S)Nc3ccc(C[N+]45CCC(CC4)CC5)c(Cl)c3)c2)N1 (stereo not drawn) [EXAMPLE P321] | 45
CCCCC1(CCCC)CS(=O)(=O)c2ccc(N(C)C)cc2C(c2cccc(NC(=S)Nc3ccc(C[N+]45CCC(CC4)CC5)cc3Br)c2)N1 (stereo not drawn) [EXAMPLE P322] | 62
CCCCC1(CCCC)CS(=O)(=O)c2ccc(N(C)C)cc2C(c2cccc(NC(=S)Nc3ccc(C[N+]45CCC(CC4)CC5)c(Br)c3)c2)N1 (stereo not drawn) [EXAMPLE P323] | 32
CCCCC1(CCCC)CS(=O)(=O)c2ccc(N(C)C)cc2C(c2cccc(NC(=S)Nc3c(C)cc(C[N+]45CCC(CC4)CC5)cc3C)c2)N1 (stereo not drawn) [EXAMPLE P326] | 100
CCCCC1(CCCC)CS(=O)(=O)c2ccc(N(C)C)cc2C(c2cccc(NC(=S)Nc3ccc(C[N+](C)(C)Cc4ccccc4)cc3C)c2)N1 (stereo not drawn) [EXAMPLE P328] | 38
CCCCC1(CCCC)CS(=O)(=O)c2ccc(N(C)C)cc2C(c2cccc(NC(=S)Nc3ccc(C[N+](C)(C)Cc4ccccc4)cc3F)c2)N1 (stereo not drawn) [EXAMPLE P330] | 32
CCCCC1(CCCC)CS(=O)(=O)c2ccc(N(C)C)cc2C(c2cccc(NC(=S)Nc3ccc(C[N+](C)(C)Cc4ccccc4)cc3Cl)c2)N1 (stereo not drawn) [EXAMPLE P332] | 46
CCCCC1(CCCC)CS(=O)(=O)c2ccc(N(C)C)cc2C(c2cccc(NC(=S)Nc3ccc(C[N+](C)(C)Cc4ccccc4)cc3Br)c2)N1 (stereo not drawn) [EXAMPLE P334] | 37
CCCCC1(CCCC)CS(=O)(=O)c2ccc(N(C)C)cc2C(c2cccc(NC(=S)Nc3c(C)cc(C[N+](C)(C)Cc4ccccc4)cc3C)c2)N1 (stereo not drawn) [EXAMPLE P338] | 47
CCCCC1(CCCC)CS(=O)(=O)c2ccc(N(C)C)cc2C(c2cccc(NC(=S)Nc3ccc(C[N+]45CCC(c6ccccc6)(CC4)CC5)c([N+](=O)[O-])c3)c2)N1 (stereo not drawn) [EXAMPLE P349] | 41
CCCCC1(CCCC)CS(=O)(=O)c2ccc(N(C)C)cc2C(c2cccc(NC(=S)Nc3c(C)cc(C[N+]45CCC(c6ccccc6)(CC4)CC5)cc3C)c2)N1 (stereo not drawn) [EXAMPLE P350] | 40
CCCCC1(CCCC)CS(=O)(=O)c2ccc(N(C)C)cc2C(c2cccc(NC(=S)Nc3ccc(C[n+]4ccc(-c5ccccc5)cc4)cc3C)c2)N1 (stereo not drawn) [EXAMPLE P376] | 37
CCCCC1(CCCC)CS(=O)(=O)c2ccc(N(C)C)cc2C(c2cccc(NC(=S)Nc3ccc(C[n+]4ccc(-c5ccccc5)cc4)cc3F)c2)N1 (stereo not drawn) [EXAMPLE P378] | 34
CCCCC1(CCCC)CS(=O)(=O)c2ccc(N(C)C)cc2C(c2cccc(NC(=S)Nc3ccc(C[n+]4ccc(-c5ccccc5)cc4)cc3Cl)c2)N1 (stereo not drawn) [EXAMPLE P380] | 18
CCCCC1(CCCC)CS(=O)(=O)c2ccc(N(C)C)cc2C(c2cccc(NC(=S)Nc3ccc(C[n+]4ccc(-c5ccccc5)cc4)cc3Br)c2)N1 (stereo not drawn) [EXAMPLE P382] | 28

Results, then the molecule that gave them:

IC50 [nM] | Structure (SMILES)
37 | CCCCC1(CCCC)CS(=O)(=O)c2ccc(N(C)C)cc2C(c2cccc(NC(=S)Nc3ccc(C[n+]4ccc(C(C)(C)O)cc4)cc3)c2)N1 (stereo not drawn) [EXAMPLE 5412]
77 | CCCCC1(CCCC)CS(=O)(=O)c2ccc(N(C)C)cc2C(c2cccc(NC(=S)Nc3ccc(C[n+]4cccc(F)c4)cc3)c2)N1 (stereo not drawn) [EXAMPLE 5416]
69 | CCCCC1(CCCC)CS(=O)(=O)c2ccc(N(C)C)cc2C(c2cccc(NC(=S)Nc3ccc(C[n+]4cccc(Cl)c4)cc3)c2)N1 (stereo not drawn) [EXAMPLE 5418]
39 | CCCCC1(CCCC)CS(=O)(=O)c2ccc(N(C)C)cc2C(c2cccc(NC(=S)Nc3ccc(C[n+]4ccc(C5CCOCC5)cc4)cc3)c2)N1 (stereo not drawn) [EXAMPLE 5419]
37 | CCCCC1(CCCC)CS(=O)(=O)c2ccc(N(C)C)cc2C(c2cccc(NC(=S)Nc3ccc(C[N+]45CCC(CC4)CC5)c(C(F)(F)F)c3)c2)N1 (stereo not drawn) [EXAMPLE P324]
35 | CCCCC1(CCCC)CS(=O)(=O)c2ccc(N(C)C)cc2C(c2cccc(NC(=S)Nc3ccc(C[N+](C)(C)Cc4ccccc4)c(F)c3)c2)N1 (stereo not drawn) [EXAMPLE P331]
44 | CCCCC1(CCCC)CS(=O)(=O)c2ccc(N(C)C)cc2C(c2cccc(NC(=S)Nc3ccc(C[N+](C)(C)Cc4ccccc4)c(Cl)c3)c2)N1 (stereo not drawn) [EXAMPLE P333]
68 | CCCCC1(CCCC)CS(=O)(=O)c2ccc(N(C)C)cc2C(c2cccc(NC(=S)Nc3ccc(C[N+](C)(C)Cc4ccccc4)c(Br)c3)c2)N1 (stereo not drawn) [EXAMPLE P335]
48 | CCCCC1(CCCC)CS(=O)(=O)c2ccc(N(C)C)cc2C(c2cccc(NC(=S)Nc3ccc(C[n+]4ccc(C(C)(C)C)cc4)cc3C)c2)N1 (stereo not drawn) [EXAMPLE P364]
23 | CCCCC1(CCCC)CS(=O)(=O)c2ccc(N(C)C)cc2C(c2cccc(NC(=S)Nc3ccc(C[n+]4ccc(C(C)(C)C)cc4)c(F)c3)c2)N1 (stereo not drawn) [EXAMPLE P367]
29 | CCCCC1(CCCC)CS(=O)(=O)c2ccc(N(C)C)cc2C(c2cccc(NC(=S)Nc3ccc(C[n+]4ccc(C(C)(C)C)cc4)cc3Cl)c2)N1 (stereo not drawn) [EXAMPLE P368]
34 | CCCCC1(CCCC)CS(=O)(=O)c2ccc(N(C)C)cc2C(c2cccc(NC(=S)Nc3ccc(C[n+]4ccc(C(C)(C)C)cc4)c(Cl)c3)c2)N1 (stereo not drawn) [EXAMPLE P369]
30 | CCCCC1(CCCC)CS(=O)(=O)c2ccc(N(C)C)cc2C(c2cccc(NC(=S)Nc3ccc(C[n+]4ccc(C(C)(C)C)cc4)cc3Br)c2)N1 (stereo not drawn) [EXAMPLE P370]
28 | CCCCC1(CCCC)CS(=O)(=O)c2ccc(N(C)C)cc2C(c2cccc(NC(=S)Nc3ccc(C[n+]4ccc(C(C)(C)C)cc4)c(Br)c3)c2)N1 (stereo not drawn) [EXAMPLE P371]
35 | CCCCC1(CCCC)CS(=O)(=O)c2ccc(N(C)C)cc2C(c2cccc(NC(=S)Nc3ccc(C[n+]4ccc(C(C)(C)C)cc4)c(C(F)(F)F)c3)c2)N1 (stereo not drawn) [EXAMPLE P372]
97 | CCCCC1(CCCC)CS(=O)(=O)c2ccc(N(C)C)cc2C(c2cccc(NC(=S)Nc3ccc(C[n+]4ccc(C(C)(C)C)cc4)c([N+](=O)[O-])c3)c2)N1 (stereo not drawn) [EXAMPLE P373]
33 | CCCCC1(CCCC)CS(=O)(=O)c2ccc(N(C)C)cc2C(c2cccc(NC(=S)Nc3c(C)cc(C[n+]4ccc(C(C)(C)C)cc4)cc3C)c2)N1 (stereo not drawn) [EXAMPLE P374]
26 | CCCCC1(CCCC)CS(=O)(=O)c2ccc(N(C)C)cc2C(c2cccc(NC(=S)Nc3ccc(C[n+]4ccc(-c5ccccc5)cc4)c(F)c3)c2)N1 (stereo not drawn) [EXAMPLE P379]
28 | CCCCC1(CCCC)CS(=O)(=O)c2ccc(N(C)C)cc2C(c2cccc(NC(=S)Nc3ccc(C[n+]4ccc(-c5ccccc5)cc4)c(Cl)c3)c2)N1 (stereo not drawn) [EXAMPLE P381]
